Reference: publication PMC8846325, “A Photoactivable Natural Product with Broad Antiviral Activity against Enveloped Viruses, Including Highly Pathogenic Coronaviruses” (Antimicrobial Agents and Chemotherapy, 2022)

Tested on: HCoV-229E
Experiment: HCoV-229E-Luc infection inhibition luciferase assay
Type: cell-based

| Compound | HCoV-229E infection with entry inhibitor |
| --- | --- |
| CCOC(=O)[C@H]1O[C@@H]1C(=O)N[C@@H](CC(C)C)C(=O)NCCC(C)C [E64D] | specifically inhibited HCoV-229E infection |
| CN(C)C(=O)COC(=O)Cc1ccc(OC(=O)c2ccc(NC(=N)N)cc2)cc1 [Camostat] | inhibited infection |
